# Test results published in patent US9144557B2, “Hematopoietic growth factor mimetic small molecule compounds and their uses” (Ligand Pharmaceuticals Inc., priority 2009, dated 2015).
# System: UT7/EPO Cell line
# Test: Cell Proliferation Assay (UT7/EPO, ViaLight Plus)
# Format: cell-based, human
# Conditions: proliferative effect; compounds at 10 uM; UT7/EPO cells starved of EPO overnight; 72 hours at 37° C.; ViaLight Plus kit
# Protocol: The primary testing for the examplfied compounds was performed in UT7/EPO Cell line. UT7/EPO is human leukemia cell line, obtained from Dr. Norio Komatsu (Blood, Vol 82 (2), pp 456-464, 1993). These cells express endogenous EPO receptor and are dependant upon EPO for growth and proliferation. Briefly, the cells were starved of EPO overnight and plated in 96 or 384 well plates. The compounds were added to the cells at 10 uM concentration. The plates were then incubated at 37° C. for 72 hours. The proliferative effect of the compounds was measured by a commercially available kit from Lonza (ViaLight Plus).
row,Compound,Activity (%)
1,"O=C(Nc1ccc2c(cnn2-c2ccc(NC(=O)c3cccs3)cc2)c1)c1ccc(N2CCCC(CO)C2)cc1 (racemic) [Compound 520, (±)-N-(4-(5-(4-(3-Hydroxymethyl)piperidin-1-yl)benzamido)-1H-indazol-1-yl)phenyl)thiophene-2-carboxamide]",13%
2,"O=C(Nc1ccc(C(=O)c2ccc(NC(=O)c3ccc[nH]3)cc2)cc1)c1ccc(N2CCCC(CO)C2)cc1 (racemic) [Compound 700, (±)-N-(4-(4-(4-(3-(Hydroxymethyl)piperidin-1-yl)benzamido)benzoyl)phenyl)-1H-pyrrole-2-carboxamide]",14%
3,"CN(C)c1ccc(C(=O)N/N=C/c2cccc(/C=N/NC(=O)c3ccc(N(C)C)cc3)c2)cc1 [Compound 103, (N′,N′″E,N′,N′″E)-N′,N′″-(1,3-phenylenebis(methanylylidene))bis(4-(dimethylamino)benzohydrazide)]",16%
4,"COc1ccc(/C=N/NC(=O)c2ccc(N(C)C)cc2)cc1/C=N/NC(=O)c1ccc(N(C)C)cc1 [Compound 106, (N′,N′″E,N′,N′″E)-N′,N′″-((4-methoxy-1,3-phenylene)bis(methanylylidene))bis(4-(dimethylamino)benzohydrazide)]",14%
5,"CN(C)c1ccc(C(=O)N/N=C/c2cc(/C=N/NC(=O)c3ccc(N(C)C)cc3)cc(OCc3ccccc3)c2)cc1 [Compound 107, (N′,N′″E,N′,N′″E)-N′,N′″-((5-(benzyloxy)-1,3-phenylene)bis(methanylylidene))bis(4-(dimethylamino)benzohydrazide)]",17%
6,"C=CCOc1cc(/C=N/NC(=O)c2ccc(N(C)C)cc2)cc(/C=N/NC(=O)c2ccc(N(C)C)cc2)c1 [Compound 113, (N′,N′″E,N′,N′″E)-N′,N′″-((5-(allyloxy)-1,3-phenylene)bis(methanylylidene))bis(4-(dimethylamino)benzohydrazide)]",17%
7,"O=C(N/N=C/c1cccc(/C=N/NC(=O)c2ccc(N(CC(F)(F)F)CC(F)(F)F)cc2)c1)c1ccc(N(CC(F)(F)F)CC(F)(F)F)cc1 [Compound 115, (N′,N′″E,N′,N′″E)-N′,N′″-(1,3-phenylenebis(methanylylidene))bis(4-(bis(2,2,2-trifluoroethyl)amino)benzohydrazide)]",22%
8,"Cn1ccc2cc(C(=O)N/N=C/c3cccc(/C=N/NC(=O)c4ccc5c(ccn5C)c4)c3)ccc21 [Compound 125, (N′,N′″E,N′,N′″E)-N′,N′″-(1,3-phenylenebis(methanylylidene))bis(1-methyl-1H-indole-5-carbohydrazide)]",15%
9,"CN(C)c1ccc(C(=O)N/N=C/c2cc(/C=N/NC(=O)c3ccc(N(C)C)cc3)cc(COCc3ccccc3)c2)cc1 [Compound 128, (N′,N′″E,N′,N′″E)-N′,N′″-((5-((benzyloxy)methyl)-1,3-phenylene)bis(methanylylidene))bis(4-(dimethylamino)benzohydrazide)]",20%
10,"CN(C)c1ccc(C(=O)N/N=C/c2cc(/C=N/NC(=O)c3ccc(N(C)C)cc3)cc(NCCO)c2)cc1 [Compound 135, (N′,N′″E,N′,N′″E)-N′,N′″-((5-((2-hydroxyethyl)amino)-1,3-phenylene)bis(methanylylidene))bis(4-(dimethylamino)benzohydrazide)]",16%
11,"COc1cccc(/C=N/NC(=O)c2ccc(C(=O)NCCC(=O)NCCO)cc2)c1 [Compound 141, (E)-N-(3-((2-hydroxyethyl)amino)-3-oxopropyl)-4-(2-(3-methoxybenzylidene)hydrazinecarbonyl)benzamide]",19%
12,"COc1cc(/C=N/NC(=O)c2ccc(C(=O)NCCC(=O)NCCO)cc2)ccc1O [Compound 146, (E)-4-(2-(4-hydroxy-3-methoxybenzylidene)hydrazinecarbonyl)-N-(3-((2-hydroxyethyl)amino)-3-oxopropyl)benzamide]",19%
13,"CN(C)c1cccc(/C=N/NC(=O)c2ccc(C(=O)NCCC(=O)NCCO)cc2)c1 [Compound 149, (E)-4-(2-(3-(dimethylamino)benzylidene)hydrazinecarbonyl)-N-(3-((2-hydroxyethyl)amino)-3-oxopropyl)benzamide]",22%
14,"CN(C)c1cccc(/C=N/NC(=O)c2ccc(NCCCC(=O)NCCO)cc2)c1 [Compound 151, (E)-4-((4-(2-(3-(dimethylamino)benzylidene)hydrazinecarbonyl)phenyl)amino)-N-(2-hydroxyethyl)butanamide]",20%
15,"COc1cccc(/C=N/NC(=O)c2ccc3c(ccn3CCCC(=O)Nc3cccc(N(C)C)c3)c2)c1 [Compound 156, (E)-N-(3-(dimethylamino)phenyl)-4-(5-(2-(3-methoxybenzylidene)hydrazinecarbonyl)-1H-indol-1-yl)butanamide]",21%
16,"COCCNC(=O)CCCn1ccc2cc(C(=O)N/N=C/c3cccc(-n4cccn4)c3)ccc21 [Compound 160, (E)-4-(5-(2-(3-(1H-pyrazol-1-yl)benzylidene)hydrazinecarbonyl)-1H-indol-1-yl)-N-(2-methoxyethyl)butanamide]",22%
17,"COc1cccc(/C=N/NC(=O)c2ccc(C(=O)NCCC(=O)NCCCCO)cc2)c1 [Compound 165, (E)-N-(3-((4-hydroxybutyl)amino)-3-oxopropyl)-4-(2-(3-methoxybenzylidene)hydrazinecarbonyl)benzamide]",19%

row,Compound,Activity (%)
1,"O=C(Nc1ccc2[nH]c(-c3ccccc3)nc2c1)c1ccc(-c2ccccc2)cc1 [Compound 172, N-(2-Phenyl-1H-benzo[d]imidazol-5-yl)-[1,1′-biphenyl]-4-carboxamide]",12%
2,"COc1ccc(C(=O)Nc2ccc3[nH]c(-c4ccc(N5CCCC5)cc4)nc3c2)cc1 [Compound 177, 4-Methoxy-N-(2-(4-(pyrrolidin-1-yl)phenyl)-1H-benzo[d]imidazol-5-yl)benzamide]",15%
3,"CN(C)c1ccc(C(=O)Nc2ccc3[nH]c(-c4ccc5c(c4)OCCN5C)nc3c2)cc1 [Compound 181, 4-(Dimethylamino)-N-(2-(4-methyl-3,4-dihydro-2H-benzo[b][1,4]oxazin-7-yl)-1H-benzo[d]imidazol-5-yl)benzamide]",20%
4,"CN(C)c1ccc(C(=O)Nc2ccc3[nH]c(-c4ccc5nonc5c4)nc3c2)cc1 [Compound 186, N-(2-(benzo[c][1,2,5]oxadiazol-5-yl)-1H-benzo[d]imidazol-5-yl)-4-(dimethylamino)benzamide]",15%
5,"CN(C)c1ccc(NC(=O)c2ccc(-c3nc4cc(NC(=O)c5ccccc5)ccc4[nH]3)cc2)cc1 [Compound 191, 4-(5-benzamido-1H-benzo[d]imidazol-2-yl)-N-(4-(dimethylamino)phenyl)benzamide]",18%
6,"CN(C)c1ccc(NC(=O)c2ccc(-c3nc4cc(C(=O)Nc5ccc(N(C)C)cc5)ccc4[nH]3)cc2)cc1 [Compound 197, N-(4-(dimethylamino)phenyl)-2-(4-((4-(dimethylamino)phenyl)carbamoyl)phenyl)-1H-benzo[d]imidazole-5-carboxamide]",20%
7,"CN(C)c1ccc(C(=O)Nc2ccc3[nH]c(-c4ccc(-c5nn[nH]n5)cc4)nc3c2)cc1 [Compound 202, N-(2-(4-(2H-tetrazol-5-yl)phenyl)-1H-benzo[d]imidazol-5-yl)-4-(dimethylamino)benzamide]",17%
8,"CN(C)c1ccc(C(=O)Nc2ccc3[nH]c(-c4ccc(N(C)C)cc4)nc3c2)cc1 [Compound 206, 4-(dimethylamino)-N-(2-(4-(dimethylamino)phenyl)-1H-benzo[d]imidazol-5-yl)benzamide]",18%
9,"COc1ccc(-c2nc3cc(NC(=O)c4cccs4)ccc3[nH]2)cc1 [Compound 210, N-(2-(4-methoxyphenyl)-1H-benzo[d]imidazol-5-yl)thiophene-2-carboxamide]",17%
10,"O=C(Nc1ccccc1)c1ccc(-c2nc3cc(NC(=O)c4ccc(N5CCCCC5)cc4)ccc3[nH]2)cc1 [Compound 215, N-phenyl-4-(5-(4-(piperidin-1-yl)benzamido)-1H-benzo[d]imidazol-2-yl)benzamide]",16%
11,"CN(C)c1ccc(C(=O)Nc2ccc3[nH]c(-c4ccc(-c5ccc(N(C)C)cc5)cc4)nc3c2)cc1 [Compound 220, 4-(dimethylamino)-N-(2-(4′-(dimethylamino)-[1,1′-biphenyl]-4-yl)-1H-benzo[d]imidazol-5-yl)benzamide]",19%
12,"O=C(Nc1ccc2[nH]c(-c3ccc(N4CCCC4)cc3)nc2c1)c1ccc(N2CCCC2)cc1 [Compound 225, 4-(pyrrolidin-1-yl)-N-(2-(4-(pyrrolidin-1-yl)phenyl)-1H-benzo[d]imidazol-5-yl)benzamide]",20%
13,"NNC(=O)c1ccc(-c2nc3cc(NC(=O)c4ccc(N5CCCC5)cc4)ccc3[nH]2)cc1 [Compound 230, N-(2-(4-(hydrazinecarbonyl)phenyl)-1H-benzo[d]imidazol-5-yl)-4-(pyrrolidin-1-yl)benzamide]",21%
14,"CN(CCO)c1ccc(C(=O)Nc2ccc3[nH]c(-c4ccc(C(=O)NC5CC5)cc4)nc3c2)cc1 [Compound 235, N-cyclopropyl-4-(5-(4-((2-hydroxyethyl)(methyl)amino)benzamido)-1H-benzo[d]imidazol-2-yl)benzamide]",15%
15,"O=C(Nc1ccc2[nH]c(-c3ccc(C(=O)NC4CC4)cc3)nc2c1)c1ccc(N2CCC(O)C2)cc1 (stereo not drawn) [Compound 240, N-cyclopropyl-4-(5-(4-(3-hydroxypyrrolidin-1-yl)benzamido)-1H-benzo[d]imidazol-2-yl)benzamide]",15%
16,"O=C(Nc1ccc(N2CCNCC2)cc1)c1ccc(-c2nc3cc(NC(=O)c4ccc(N5CCNCC5)cc4)ccc3[nH]2)cc1 [Compound 251, 4-(piperazin-1-yl)-N-(2-(4-((4-(piperazin-1-yl)phenyl)carbamoyl)phenyl)-1H-benzo[d]imidazol-5-yl)benzamide]",14%
